From patent publication US10947216B2, “Amide compounds and method for making and using” (Rigel Pharmaceuticals, Inc., priority 2016, dated 2021)
Counter-ions that a name gives are not always drawn.

Columns and labels:
[1] = system: IL-23 (p19/p40); assay: IL23-p19 ELISA, dendritic cells (DC differentiated from human PBMC, IFNγ primed), LPS stimulated; type: cell-based; details: Dendritic cell, human PBMC-derived dendritic cells, 1 h compound pre-incubation, LPS 1 μg/ml 18 hours, 10 pt
Experimental: Compound Screening Using DC Cells
I. Differentiation of PBMC's to DC Cells:
After 2 hours, the media including floating cells was aspirated out carefully and 12 ml of fresh RPMI media (10% FBS) containing GMCSF (100 ng/ml) and IL4 (20 ng/ml) was added, and the flask was kept in a 37° C. incubator for 7 days.
After 3 days, fresh GMCSF (100 ng/ml) and IL4 (20 ng/ml) were added to the flask and the incubation continued. After 7 days, the fully differentiated cells were harvested by spinning down (1200 rpm/5 min) and aspirating the media. The cells were suspended in fresh RPMI media (10% FBS) containing 50 ng/ml IFNγ (1000 U/ml) and then plated (50K/well in 100 μl) onto a white clear bottom 96 well plate and left in a 37° C. incubator for 24 hours.
II. Addition of Compounds:
After 24 hours incubation, 100 μl of RPMI media was added containing 2× concentrated test compound per well to the above cell-culture media (final concentration becomes 1×) and the plates were pre-incubated for 1 hour at 37° C. before stimulating with LPS.
The mixture was shaken and incubated the plates at 37° C. for an additional 18 hours.
155 μl of the supernatant was harvested from each well carefully (without the tip touching the bottom of the well) and to the remaining 50 μl/well of the cell culture plate was added 50 μl of Cell Titer Glo reagent. The mixture was incubated for 1-2 minutes on a shaker and the plate was read for luminescence intensity to determine the compound cytotoxicity. The cell culture supernatant collected above was used to carry out IL23 ELISA (65 μl—Supernatant) and IL10 ELISA (90 μl—Supernatant) as described below.
Human IL-23 (p19/p40) ELISA Protocol (e-Biosciences)
To 10.5 ml PBS add 50 μl of anti-IL23 (p19) was added capture antibody (2.5 μg/ml). The mixture was mixed well and 100 μl of the coating solution was added to each well of the 96 well white plates from Pierce. The wells were covered and incubated overnight at 4° C.
The anti-IL23 (p19)-antibody-coated plates were washed 2× using TBST (use plate washer) and blocked using 200 μl of 0.5% Casein for 1.5-2 hours at room temperature with shaking.
Addition of Supernatant and Detection:
The plates were washed 2× using TBST and the supernatant was transferred (65 μl/well) to the above pre-blocked/IL23(p19)-antibody-coated 96 well plate, and incubated at room temperature for 1.5 hours with shaking.
The plates were washed 4× using TBST (plate washer) and 100 μl/well detection antibody solution prepared from 2 μl of biotin labeled anti-IL-12 (p40/p70) antibody in 11 ml 1% BSA/PBS solution (1-5000 dilution) was added. The plates were incubated for 1 hour with shaking at Room temperature.
Again, the plates were washed 4× with TBST and 100 μl of HRP labeled Streptavidin (R&D Systems) solution (10 μl/10 ml 1% BSA solution) was added, and the plates were incubated at room temperature for another 45 minutes with shaking.
After 45 minutes, the plates were washed with TBST 4× and 100 μl/well Super Signal ELISA Pico Chemiluminescent Substrate from Pierce (3.5 ml A+3.5 ml B+3.5 ml MQ water) was added. The plates were shaken for 1-2 minutes then read on a plate reader.

[2] = system: IL-23p19; assay: LPS Induced IL23p19 in THP-1 Cells (with IFNγ Primed) Assay; type: cell-based, human; details: Homo sapiens, THP-1, THP-1 cells, IFNγ (50 ng/mL) primed, 1 hour compound pre-incubation, LPS 1 ug/mL 18 hours, 10 pt; read-out: IL23-p19 ELISA, THP1-IFNy, LPS, 10 pt EC50
Experimental: LPS Induced IL23p19 in THP-1 Cells (with IFNγ Primed) Assay
Method THP-1 Cells Stimulation:
On day 1, 50K/well THP-1 cells were seeded and primed with IFNγ (50 ng/mL) in 384-well plates for about 18 hours in RPMI media with 10% FBS. […] 50 μL/well 2× compound was added to 50 μL/well THP-1 cells (with IFNγ primed) in duplicate in 384 well tissue culture plates. […] Day 3, after stimulation for 18 hours at 37° C., 5% CO2, the assay plate was centrifuged and 70 μL/well supernatant was harvested. IL-23p19 protein in 70 μL/well of supernatant was measured by sandwich ELISA, and 25 μl/well Cell Titer Glo reagent was added to the remaining cells to measure compound toxicity.
Human IL-23p19 Sandwich ELISA:
Maxisorp immuno ELISA plates were pre-coated with 25 μL/well of anti-IL-23p19 capture antibody (2.5 ug/mL) in PBS overnight at room temperature. After washing with 1×PBST, the plates were blocked using 100 μL/well of 1% BSA in PBS for 2 hours at room temperature. The plates were washed three times with 1×PBST and 70 μL/well supernatant were added. The plates were incubated at room temperature for 2 hours with shaking and washed three times with 1×PBST. 25 μL/well of biotin labeled anti-IL-12(p40/p70) detection antibody (100 ng/mL) in PBS with 1% BSA was added and the plates were incubated at room temperature for 2 hours with shaking. After washing three times with 1×PBST, 25 μL/well of streptavidin-HRP (1:200) in PBS with 1% BSA was added and the plates were incubated at room temperature for 20 minutes with shaking. The plates were washed three times with 1×PBST and 25 μL/well of Super Signal ELISA Pico Chemiluminescent Substrate were added. The plates were read with a luminometer, and the chemiluminescence values were entered into Athena (Rigel) for curve fitting, EC50 calculation, and database storage.

| EC50 [1] | EC50 [2] | SMILES |
| --- | --- | --- |
| 0.784 µM | 4.25 µM | Cn1cc(NC(=O)c2cccc(-c3cncc(N4CCCC4)c3)n2)c(-c2ccccn2)n1 [Compound I-36, N-(1-methyl-3-(pyridin-2-yl)-1H-pyrazol-4-yl)-5′-(pyrrolidin-1-yl)-[2,3′-bipyridine]-6-carboxamide] |
| 6.54 µM | 11.1 µM | NC(=O)c1cncc(-c2cccc(C(=O)Nc3cn(C4COC4)nc3-c3ccccn3)n2)c1 [Compound I-133, N6-(1-(oxetan-3-yl)-3-(pyridin-2-yl)-1H-pyrazol-4-yl)-[2,3′-bipyridine]-5′,6-dicarboxamide] |
| 8.79 µM | 2.39 µM | CC(C)n1cc(NC(=O)c2cccc(-c3cn[nH]c3)n2)c(-c2ccccn2)n1 [Compound I-80, N-(1-isopropyl-3-(pyridin-2-yl)-1H-pyrazol-4-yl)-6-(1H-pyrazol-4-yl)picolinamide] |
| 1.46 µM | 1.32 µM | Cn1cc(NC(=O)c2cccc(-c3ccc(N)nc3)n2)c(-c2ccccn2)n1 [Compound I-43, 6′-amino-N-(1-methyl-3-(pyridin-2-yl)-1H-pyrazol-4-yl)-[2,3′-bipyridine]-6-carboxamide] |
| 10.7 µM | 41.1 µM | COCCOCCn1cc(NC(=O)c2cccc(-c3cc4ccc(OC)cc4[nH]3)n2)c(-c2ccccn2)n1 [Compound I-147, 6-(6-methoxy-1H-indol-2-yl)-N-(1-(2-(2-methoxyethoxy)ethyl)-3-(pyridin-2-yl)-1H-pyrazol-4-yl)picolinamide formate] |
| 2.99 µM | 46.9 µM | Cc1cncc(-c2ccnc(C(=O)Nc3cn(C)nc3-c3ccccn3)n2)c1 [Compound I-120, N-(1-methyl-3-(pyridin-2-yl)-1H-pyrazol-4-yl)-4-(5-methylpyridin-3-yl)pyrimidine-2-carboxamide] |
| 4.2 µM | 7.52 µM | Cn1cc(NC(=O)c2cccc(-c3ccnc(NCC(F)(F)F)c3)n2)c(-c2ccccn2)n1 [Compound I-161, N-(1-methyl-3-(pyridin-2-yl)-1H-pyrazol-4-yl)-2′-((2,2,2-trifluoroethyl)amino)-[2,4′-bipyridine]-6-carboxamide formate] |
| 7.19 µM | 2.52 µM | Cn1cc(NC(=O)c2cccc(-c3cncc(NCC4CC4)c3)n2)c(-c2ccccn2)n1 [Compound I-32, 5′-((cyclopropylmethyl)amino)-N-(1-methyl-3-(pyridin-2-yl)-1H-pyrazol-4-yl)-[2,3′-bipyridine]-6-carboxamide] |
| 82.7 µM | 2.01 µM | O=C(Nc1cn(CCN2CCOCC2)nc1-c1ccccn1)c1cccc(-c2cn[nH]c2)n1 [Compound I-83, N-(1-(2-morpholinoethyl)-3-(pyridin-2-yl)-1H-pyrazol-4-yl)-6-(1H-pyrazol-4-yl)picolinamide] |
| 2.68 µM | 0.483 µM | COc1ccc(-c2nn(C)cc2NC(=O)c2cccc(-c3ccn[nH]3)n2)nc1 [Compound I-67, N-(3-(5-methoxypyridin-2-yl)-1-methyl-1H-pyrazol-4-yl)-6-(1H-pyrazol-5-yl)picolinamide] |
| 2.16 µM | 33.2 µM | Cc1cncc(-c2cccc(C(=O)Nc3cn(C)nc3N3CCOCC3)n2)c1 [Compound I-77, 5′-methyl-N-(1-methyl-3-morpholino-1H-pyrazol-4-yl)-[2,3′-bipyridine]-6-carboxamide] |
| 2.73 µM | 21.4 µM | COCCOCCn1cc(NC(=O)c2cccc(Oc3ccnc(N)c3)n2)c(-c2ccccn2)n1 [Compound I-156, 6-((2-aminopyridin-4-yl)oxy)-N-(1-(2-(2-methoxyethoxy)ethyl)-3-(pyridin-2-yl)-1H-pyrazol-4-yl)picolinamide formate] |
| 0.204 µM | 2.87 µM | CNc1cncc(-c2cccc(C(=O)Nc3cn(C)nc3-c3ccccn3)n2)c1 [Compound I-26, N-(1-methyl-3-(pyridin-2-yl)-1H-pyrazol-4-yl)-5′-(methylamino)-[2,3′-bipyridine]-6-carboxamide] |
| 1.83 µM | 14.5 µM | Cn1cc(NC(=O)c2cccc(-c3cccnc3)n2)c(-c2cnccn2)n1 [Compound I-101, N-(1-methyl-3-(pyrazin-2-yl)-1H-pyrazol-4-yl)-[2,3′-bipyridine]-6-carboxamide] |
| 6.28 µM | 4.5 µM | COCCOCCn1cc(NC(=O)c2cccc(-c3cnn(-c4cccc(Cl)c4)c3)n2)c(-c2ccccn2)n1 [Compound I-148, 6-(1-(3-chiorophenyl)-1H-pyrazol-4-yl)-N-(1-(2-(2-methoxyethoxy)ethyl)-3-(pyridin-2-yl)-1H-pyrazol-4-yl)picolinamide formate] |
| 4.17 µM | 1.49 µM | Cc1cncc(-c2cccc(C(=O)Nc3cn(C)nc3-c3ccc(OC4COC4)cn3)n2)c1 [Compound I-181, 5′-methyl-N-(1-methyl-3-(5-(oxetan-3-yloxy)pyridin-2-yl)-1H-pyrazol-4-yl)-[2,3′-bipyridine]-6-carboxamide] |
| 16.1 µM | 71.9 µM | Cn1cc(NC(=O)c2cccc(-c3cncc(NS(C)(=O)=O)c3)n2)c(-c2ccccn2)n1 [Compound I-34, N-(1-methyl-3-(pyridin-2-yl)-1H-pyrazol-4-yl)-5′-(methylsulfonamido)-[2,3′-bipyridine]-6-carboxamide] |
| 2.99 µM |  | Cn1cc(NC(=O)c2cccc(-c3cncc(C(N)=O)c3)n2)c(-c2ccccn2)n1 [Compound I-40, N6-(1-methyl-3-(pyridin-2-yl)-1H-pyrazol-4-yl)-[2,3′-bipyridine]-5′,6-dicarboxamide] |
| 6.5 µM |  | O=C(Nc1cn(C2CCOCC2)nc1-c1ccccn1)c1cccc(-c2ccncc2)n1 [Compound I-167, N-(3-(pyridin-2-yl)-1-(tetrahydro-2H-pyran-4-yl)-1H-pyrazol-4-yl)-[2,4′-bipyridine]-6-carboxamide] |
| 1.65 µM |  | CC(C)Oc1cncc(-c2cccc(C(=O)Nc3cn(C4COC4)nc3-c3ccccn3)n2)c1 [Compound I-130, 5′-isopropoxy-N-(1-(oxetan-3-yl)-3-(pyridin-2-yl)-1H-pyrazol-4-yl)-[2,3′-bipyridine]-6-carboxamide] |

| SMILES | EC50 [1] | EC50 [2] |
| --- | --- | --- |
| CS(=O)(=O)Nc1cncc(-c2cccc(C(=O)Nc3cn(C4COC4)nc3-c3ccccn3)n2)c1 [Compound I-115, 5′-(methylsulfonamido)-N-(1-(oxetan-3-yl)-3-(pyridin-2-yl)-1H-pyrazol-4-yl)-[2,3′-bipyridine]-6-carboxamide] | 7.65 µM | 2.18 µM |
